Data taken from patent publication US20230056205A1, “SUBSTITUTED 4,6-DIHYDROSPIRO[[1,2,3]TRIAZOLO[4,5-B]PYRIDINE-7,3'-INDOLINE]-2',5(3H)-DIONE ANALOGUES” (The Board of Regents of The University of Texas System, priority 2019, published 2023).

What was measured:
[1] = test system: DENV-4 replicon; experiment: Luciferase reporter replicon-based screening, DENV-4; type: cell-based, DENV-4 (strain D4MY01-22713); conditions: Dengue virus, DENV4, Huh-7, 48 h, read-out: EC50 DENV-4
Procedure, shortened: (§1)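 Huh7 cells carrying Renilla luciferase/neo replicons of DENV-1 (WestPac), DENV-2 (NGC), DENV-3 (D3MY05-34640) or DENV-4 (D4MY01-22713), treated with 2-fold compound dilutions for 48 h at 37 °C in duplicate. Live-cell luciferase read; EC50 by four-parameter logistic fit.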

[2] = test system: P12 resistant DENV-2 viruses (NS4B V63M or V63L); type: cell-based, DENV-2 strain NGC
[3] = test system: DENV-2 strain NGC; experiment: Viral titer reduction assay, DENV-2 strain NGC; type: cell-based; conditions: Dengue virus, DENV2, Huh-7; viral titer reduction assay on Huh7 cells
Experimental: Viral Titer Reduction Assay. Huh7 cells were seeded in a 96-well plate. The next day, cells were infected with DENV-2 strains NGC or D2Y98P at a MOI of 0.3 in the presence of 2-fold serial dilutions of compounds. Experiments were performed in triplicates. After incubation at 37° C. for 48 h, cell culture fluids were harvested. The infectious viruses in the culture fluids were determined by plaque assay using a protocol as described previously.^48 The EC50 values were calculated using four parameter logistic regression in GraphPad software Prism 8.0.

[4] = in vivo; type: in vivo, male SD rats
Experimental: In Vivo PK Studies. The PK profiles of compound 15 were determined in male SD rats following intravenous (i.v.) and oral (p.o.) administration of 10 and 20 mg/kg, respectively. The formulations used for i.v. and p.o. were solution in DMSO: 20% HP-β-CD in saline = 1:9. IV bolus injection, animal number N = 3; dose level: 10 mg/kg; sample collection time points: 5 min, 15 min, 30 min, 1 h, 2 h, 4 h, 8 h, 24 h; PO: animal number N = 3; fasting 12 h, dose level: 20 mg/kg; sample collection time points: 15 min, 30 min, 1 h, 2 h, 4 h, 8 h, 24 h. Plasma concentrations of compound 15 were measured by API-4000/5500 LC-MS/MS with 8 point standard curve and 6 QCs. Pharmacokinetic parameters were calculated by a non-compartmental approach using WinNonLin software.

[5] = test system: DENV-3 replicon; experiment: Luciferase reporter replicon-based screening, DENV-3; type: cell-based, DENV-3 (strain D3MY05-34640); conditions: Dengue virus, DENV3, Huh-7, 48 h, read-out: EC50 DENV-3, Huh7 cells stably expressing DENV-3 replicon, 48 h
Procedure, shortened: as §1

[6] = test system: DENV-1 replicon; experiment: Luciferase reporter replicon-based screening, DENV-1; type: cell-based, DENV-1 (strain WestPac); conditions: Dengue virus, DENV1, Huh-7, 48 h, read-out: EC50 DENV-1
Procedure, shortened: as §1

[7] = test system: DENV-2 replicon; experiment: Luciferase reporter replicon-based screening, DENV-2; type: cell-based, DENV-2 (New Guinea C strain, NGC); conditions: Dengue virus, DENV2, Huh-7, 48 h, read-out: EC50 DENV-2, Huh7 cells stably expressing DENV-2 replicon, 48 h
Procedure, shortened: as §1

[8] = Cytotoxicity assay (CellTiter-Glo); type: cell-based; conditions: human, Huh7 cells stably expressing DENV-2 replicon
Procedure, shortened: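 Huh7 or Huh7 replicon cells, seeded overnight at 37 °C, exposed to 2-fold serial dilutions of compound for 48 h in duplicate. Viability by CellTiter-Glo, normalised to 0.45% DMSO wells (100%); CC50 by four-parameter logistic regression.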

Which results are given for `CC(C)CCN1C(=O)[C@]2(CC(=O)Nc3c2nnn3[C@@H](C)c2ccc(Cl)cc2)c2cc(Cl)ccc21` [Compound 15, (R)-5'-Chloro-3-((S)-1-(4-chlorophenyl)ethyl)-1'-isopentyl-4,6-dihydrospiro[[1,2,3]triazolo[4,5-b]pyridine-7,3'-indoline]-2ʹ,5(3H)-dione]?
EC50 [1]: > 5 µM; increase of viral resistance by mutation NS4B V63L ([2]; P12-VI virus, Huh7 cells): 16 folds; EC50 ([2]; viral reduction assay on Huh7 cells, read-out: EC50 against resistant viruses P12-VI): 2 µM; EC50 [3]: ~0.1 µM; AUC0- ∞ ([4]; iv 10 mg/kg, rat plasma): 10,334 ng·h/mL; CL ([4]; iv 10 mg/kg, rat plasma): 0.82 L/h/kg; Cmax ([4]; iv 10 mg/kg, rat plasma): 10,334 ng/mL; MRT ([4]; iv 10 mg/kg, rat plasma): 2.28 h; Vss ([4]; iv 10 mg/kg, rat plasma): 2.67 L/kg; t½ ([4]; iv 10 mg/kg, rat plasma): 2.29 h; Tmax ([4]; male, SD, in vivo, po 20 mg/kg, rat plasma): 1 h; bioavailability ([4]; male, SD, rat, in vivo, po 20 mg/kg vs iv 10 mg/kg, rats, read-out: F (absolute oral bioavailability)): 30%; AUC0- ∞ ([4]; po 20 mg/kg, rat plasma): 6,240 ng·h/mL; CL ([4]; po 20 mg/kg, rat plasma): 3.57 L/h/kg; Cmax ([4]; po 20 mg/kg, rat plasma): 1,517 ng/mL; MRT ([4]; po 20 mg/kg, rat plasma): 3.46 h; Vss ([4]; po 20 mg/kg, rat plasma): 11.54 L/kg; t½ ([4]; po 20 mg/kg, rat plasma): 2.24 h; EC50 [5]: 0.035 µM; EC50 [6]: 0.78 µM; EC50 [7]: 0.16 µM; CC50 at 48 h [8]: > 10 µM
